Results on one compound are retold here after US11970458B1, “4,5-bis(4-bromophenyl)-1-hexyl-2-(4-nitrophenyl)-1H-imidazole as an antimicrobial compound” (KING FAISAL UNIVERSITY, priority 2023, dated 2024).

Data set [1] relates to Escherichia coli. The experiment in a line: antimicrobial screening by agar dilution. The class given is cell-based. As to conditions: after 10, 20, 40 and 60 minutes at all dilutions 1:100, 1:200, 1:400, 1:800. The protocol: (§1) The antimicrobial properties of the 4,5-bis(4-bromophenyl)-1-hexyl-2-(4-nitrophenyl)-1H-imidazole was studied by the method of agar dilution. Test solutions of each compound was prepared in concentration of 1% using dimethylformamide as a solvent then they were diluted in physiological solution to obtain the final experimental dilutions 1:100, 1:200, 1:400, 1:800. The effect of these substances were compared with furacillin in a controlled study. The testing microbes used were gram positive bacteria Staphylococcus aureus, gram negative bacteria Pseudomonas aeruginosa and Escherichia coli and Candida albicans fungi were taken. The experiments used for this survey were meat-pentonlu agar (EPA) for cultivation of bacteria and Saburo environment for fungi. Each experiment used 1 ml of test solution on each plate 500 min. Add 2 drops of emulsified with microbes feel. All experimental samples were taken from the agar after 10, 20, 40, 60 minutes in the environment on the basis of Patrk planted. Bacteria were cultivated at a temperature of 37° C. for 1 day and the mushroom was kept in a thermostat for […] at a temperature of 28° C. Then results were checked.
A general note: Agar dilution tests growth on a series of plates holding different concentrations.

Data set [2] deals with Candida albicans. As to the kind of experiment: antimicrobial screening by agar dilution. The class given is cell-based. As to conditions: after 10, 20, 40 and 60 minutes at all dilutions 1:100, 1:200, 1:400, 1:800. The protocol:
as §1

For data set [3], the system named is Pseudomonas aeruginosa. As to the kind of experiment: antimicrobial screening by agar dilution. The class given is cell-based. The following applies: after 10, 20, 40 and 60 minutes at all dilutions 1:100, 1:200, 1:400, 1:800. How it is done: as §1
Data set [4] has as its system Staphylococcus aureus. As to the kind of experiment: antimicrobial screening by agar dilution. As to conditions: after 10, 20, 40 and 60 minutes at all dilutions 1:100, 1:200, 1:400, 1:800. The class given is cell-based. How it is done: as §1

Molecules are shown by their SMILES.

Usually melting point stands for the temperature of the solid-liquid transition. For `CCCCCCn1c(-c2ccc([N+](=O)[O-])cc2)nc(-c2ccc(Br)cc2)c1-c1ccc(Br)cc1` [4,5-bis(4-bromophenyl)-1-hexyl-2-(4-nitrophenyl)-1H-imidazole], the melting point was in the range of 160 to 161 °C. Besides, the inhibition activity result in data set [1] is “highest inhibition activity”. Further, the inhibition activity entry in data set [2] was “highest inhibition activity”. In addition, the inhibition activity entry in data set [3] is recorded as “highest inhibition activity”. For the same compound, in data set [4], the inhibition activity result is listed as “highest inhibition activity”.
